Assay results from PubChem BioAssay (NCI).
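48-hour exposure; five concentrations; linearly interpolated endpoints. GI50: concentration for 50% inhibition of growth. TGI marks complete inhibition of growth.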

Assays:
Test in all cases: NCI anticancer screen, dose series, 48 h
[1] = system: ACHN renal
[2] = system: SF-268 CNS
[3] = system: HL-60(TB) leukemia
[4] = system: SK-MEL-28 melanoma
[5] = system: SR leukemia
[6] = system: 786-0 renal
[7] = system: MCF7 breast
[8] = system: KM12 colon
[9] = system: DU-145 prostate
[10] = system: RPMI-8226 leukemia

Structure (SMILES)	TGI [1]	TGI [2]	TGI [3]	TGI [4]	TGI [5] [µM]	TGI [6]	TGI [7] [µM]	TGI [8]	TGI [9] [µM]	TGI [10]	GI50 [1]	GI50 [2]	GI50 [10]	GI50 [4]	GI50 [5] [µM]	GI50 [6]	GI50 [8]	GI50 [7] [µM]	GI50 [9] [µM]	GI50 [3]
CCOC(=O)n1c2ccccc2c(=O)n1CCO	> 100 µM	> 100 µM	> 100 µM	> 100 µM	> 100	> 100 µM	> 100	> 100 µM	> 100	–	–	–	–	–	–	–	–	–	–	–
CCOc1ccc(/C=C2/C(=O)N=C(N)N=C2N)cc1OCC	> 100 µM	–	> 100 µM	> 100 µM	> 100	> 100 µM	–	> 100 µM	–	> 100 µM	–	–	–	–	–	–	–	–	–	–
O=C(O)C1=C(C(=O)O)Oc2ccccc2O1	> 100 µM	> 100 µM	> 100 µM	> 100 µM	> 100	> 100 µM	–	> 100 µM	–	–	–	–	–	–	–	–	–	–	–	–
CC1(C)CC(O)CC(C)(C)N1.CC1(C)CC(O)CC(C)(C)N1.CC1(C)CC(O)CC(C)(C)N1.CC1(C)CC(O)CC(C)(C)N1.Cl.[Ti]	> 100 µM	> 100 µM	–	> 100 µM	> 100	> 100 µM	–	> 100 µM	–	> 100 µM	> 100 µM	> 100 µM	> 100 µM	> 100 µM	> 100	> 100 µM	> 100 µM	–	–	–
O=S(=O)(Cc1ccccc1)SCc1ccccc1	> 100 µM	> 100 µM	21.5 µM	97.2 µM	> 66.4	51.5 µM	–	> 100 µM	–	61.6 µM	–	–	–	–	–	–	–	–	–	–
COc1cc2c3c(n(CCCN4CCSCC4)c(=O)c2cc1OC)-c1cc2c(cc1C3=O)OCO2	> 100 µM	> 100 µM	–	> 100 µM	–	75.5 µM	> 100	> 100 µM	> 100	–	58.6 µM	28.2 µM	–	> 100 µM	–	25.2 µM	> 100 µM	61.4	> 100	–
NCC(Cc1ccccc1)P(=O)(O)O (stereo unspecified)	> 100 µM	> 100 µM	> 100 µM	> 100 µM	–	> 100 µM	> 100	> 100 µM	> 100	–	–	–	–	–	–	–	–	–	–	–
Nc1c(-c2nc3ccccc3s2)[n+]([O-])c2ccccc2[n+]1[O-]	78 µM	82.2 µM	93.5 µM	61.5 µM	–	> 100 µM	–	> 100 µM	–	89.5 µM	–	–	–	–	–	–	–	–	–	–
Nc1nc(-c2ccccc2)cc(-c2cc(Cl)ccc2O)n1	72.3 µM	> 100 µM	> 100 µM	> 100 µM	> 100	> 100 µM	–	> 100 µM	–	> 100 µM	–	–	–	–	–	–	–	–	–	–
NNC(=O)N/N=C1\CNC(=O)C(=O)C1c1nc2ccccc2s1 (stereo unspecified)	> 100 µM	> 100 µM	> 100 µM	> 100 µM	–	> 100 µM	–	> 100 µM	–	> 100 µM	–	–	–	–	–	–	–	–	–	–
CC1(C)OC2OC(COC(=O)C(c3ccccc3)c3ccccc3)C3OC(C)(C)OC3C2O1 (stereo unspecified)	> 100 µM	> 100 µM	13.8 µM	> 100 µM	–	> 100 µM	–	> 100 µM	–	42.7 µM	–	–	–	–	–	–	–	–	–	2.99 µM
CC(=O)c1c(O)c2c([nH]c1=O)CCCC2	> 100 µM	> 100 µM	> 100 µM	> 100 µM	–	> 100 µM	–	–	–	–	–	–	–	–	–	–	–	–	–	–
c1ccc2c(c1)[O][Sn][O]2	> 150 µg/mL	> 150 µg/mL	6.37 µg/mL	> 150 µg/mL	–	> 150 µg/mL	–	> 150 µg/mL	–	> 150 µg/mL	24.1 µg/mL	25.1 µg/mL	7.54 µg/mL	81.8 µg/mL	–	23.6 µg/mL	21.8 µg/mL	–	–	1.55 µg/mL
CC(C)=CC(=O)CC(=O)C(=O)NCCNC(=O)C(=O)CC(=O)C=C(C)C	> 50 µM	> 50 µM	–	> 50 µM	–	> 50 µM	–	> 50 µM	–	> 50 µM	–	–	–	–	–	–	–	–	–	–
CCOC(=O)COc1cccc2occc(=O)c12	> 100 µM	> 100 µM	> 100 µM	> 100 µM	–	> 100 µM	–	> 100 µM	–	> 100 µM	–	–	–	–	–	–	–	–	–	–
COC(=O)c1ccc2c(c1)C(=O)c1c-2n(CCCCl)c(=O)c2cc(OC)c(OC)cc12	> 100 µM	> 100 µM	–	> 100 µM	> 100	> 100 µM	> 100	> 100 µM	> 100	> 100 µM	> 100 µM	> 100 µM	75.2 µM	> 100 µM	0.061	> 100 µM	> 100 µM	> 100	> 100	–
O=C(CN(/C=C/C(=O)C(F)(F)F)c1ccccc1)c1ccc(F)cc1	69.4 µM	64.5 µM	–	> 100 µM	–	> 100 µM	59.3	69.9 µM	> 100	54 µM	22.3 µM	23.1 µM	19.3 µM	54.8 µM	–	41.1 µM	24.9 µM	23.2	50	–
COc1ccc2c3c(c(C(=O)O)oc13)C(CCC(=O)O)CC2 (stereo unspecified)	> 100 µM	–	–	> 100 µM	–	> 100 µM	–	–	–	–	–	–	–	–	–	–	–	–	–	–
O=c1c2cccc3cccc(c4n1CCCN=4)c32	> 100 µM	> 100 µM	> 100 µM	> 100 µM	> 100	> 100 µM	–	> 100 µM	–	> 100 µM	–	–	–	–	–	–	–	–	–	–
Cc1cn2c(/C=C3/C(=O)Nc4ccc(C(=O)O)cc43)c(C)nc2s1	> 100 µM	> 100 µM	> 100 µM	> 100 µM	–	> 100 µM	> 100	> 100 µM	> 100	> 100 µM	> 100 µM	> 100 µM	> 100 µM	> 100 µM	–	> 100 µM	> 100 µM	> 100	> 100	> 100 µM
CCN(CC)CCCNc1c2ccc(Cl)cc2nc2ccc(OC)cc12	–	3.53 µM	–	–	3.67	2.15 µM	3.16	4.45 µM	4.08	2.83 µM	–	0.0618 µM	0.042 µM	–	0.029	0.0449 µM	0.0541 µM	0.0377	0.0476	–
